{"source": "patent US20050096254A1", "about": "“Peptide deformylase activated prodrugs” (priority 2002, published 2005)", "system": "P. aeruginosa", "experiment": "MIC susceptibility testing (modified NCCLS)", "assay_type": "cell-based", "procedure": "The NCCLS (National Committee for Clinical Laboratory Standards), method to determine MIC's of antimicrobial compounds is modified for high-throughput screening. All stocks of tested compounds are prepared in either water or in DMSO depending on solubility. At the highest concentration, DMSO content should not exceed 0.5%. Briefly, twenty 2-fold serial dilutions of test compounds from the highest concentration is made in a 384-well microtiter plate. […] Bacterial growth is determined by the increase of optical density at 600 nm using a microplate reader (Tecan SpectraFluor Plus).", "data": [{"smiles": "CSCC[C@H](NC=O)C(=O)N[C@@H](CC(C)C)C(=O)Oc1cc(Cl)ccc1Oc1ccc(Cl)cc1Cl", "note": "[Compound #2]", "values": [{"measurement": "MIC", "setting": "Table 4, P. aeruginosa ATCC 21726, Exp. #1", "value": ">64", "unit": "µg/mL"}, {"measurement": "MIC", "setting": "Table 4, P. aeruginosa ATCC 21726, Exp. #2", "value": "≧64 μg/ml"}, {"measurement": "MIC", "setting": "Table 4, P. aeruginosa ATCC 29872, Exp. #1", "value": ">64", "unit": "µg/mL"}, {"measurement": "MIC", "setting": "Table 4, P. aeruginosa ATCC 29872, Exp. #2", "value": "≧64 μg/ml"}]}]}
